Reference: ChEMBL document CHEMBL3044624, “Cycloate, an inhibitor of fatty acid elongase, modulates the metabolism of very-long-side-chain alkylresorcinols in rye seedlings” (Pest Manag Sci, 2009)

Legend:
[1] = system: Secale cereale; assay: Change in alkylresorcinol homologue composition in dry shoots of etiolated Secale cereale (rye) seedlings grown from compound-treated seeds at 29 +/-2 degC assessed as C19:0 content at 46 uM by GC/EI-MS analysis (reference value: 1.06 mg/kg dry weight); type: functional
[2] = system: Secale cereale; assay: Change in alkylresorcinol homologue composition in dry shoots of green Secale cereale (rye) seedlings grown from compound-treated seeds at 22 +/-2 degC assessed as C19:0 content at 46 uM by GC/EI-MS analysis (reference value: 0.56 mg/kg dry weight); type: functional
[3] = system: Secale cereale; assay: Change in alkylresorcinol homologue composition in dry shoots of green Secale cereale (rye) seedlings grown from compound-treated seeds at 29 +/-2 degC assessed as C17:1 content at 46 uM by GC/EI-MS analysis (reference value: 0.08 mg/kg dry weight); type: functional
[4] = system: Secale cereale; assay: Change in alkylresorcinol homologue composition in dry shoots of green Secale cereale (rye) seedlings grown from compound-treated seeds at 22 +/-2 degC assessed as C21:0 content at 46 uM by GC/EI-MS analysis (reference value: 0.23 mg/kg dry weight); type: functional
[5] = system: Secale cereale; assay: Change in alkylresorcinol homologue composition in dry shoots of green Secale cereale (rye) seedlings grown from compound-treated seeds at 15 +/-2 degC assessed as C21:0 content at 46 uM by GC/EI-MS analysis (reference value: 0.41 mg/kg dry weight); type: functional
[6] = system: Secale cereale; assay: Change in alkylresorcinol homologue composition in dry shoots of green Secale cereale (rye) seedlings grown from compound-treated seeds at 15 +/-2 degC assessed as C15:0 content at 46 uM by GC/EI-MS analysis (reference value: 0.24 mg/kg dry weight); type: functional
[7] = system: Secale cereale; assay: Change in alkylresorcinol homologue composition in dry shoots of etiolated Secale cereale (rye) seedlings grown from compound-treated seeds at 22 +/-2 degC assessed as C23:1 content at 46 uM by GC/EI-MS analysis (reference value: 0.04 mg/kg dry weight); type: functional
[8] = system: Secale cereale; assay: Change in alkylresorcinol content in dry shoots of etiolated Secale cereale (rye) seedlings grown from compound-treated seeds at 22 +/-2 degC at 46 uM by thin layer chromatography (reference value: 6.22 +/-0.09 mg/kg dry weight); type: functional
[9] = system: Secale cereale; assay: Change in alkylresorcinol homologue composition in dry shoots of etiolated Secale cereale (rye) seedlings grown from compound-treated seeds at 22 +/-2 degC assessed as C17:0 content at 46 uM by GC/EI-MS analysis (reference value: 1.35 mg/kg dry weight); type: functional
[10] = system: Secale cereale; assay: Change in alkylresorcinol homologue composition in dry shoots of etiolated Secale cereale (rye) seedlings grown from compound-treated seeds at 15 +/-2 degC assessed as C15:0 content at 46 uM by GC/EI-MS analysis (reference value: 0.43 mg/kg dry weight); type: functional
[11] = system: Secale cereale; assay: Change in alkylresorcinol homologue composition in dry shoots of green Secale cereale (rye) seedlings grown from compound-treated seeds at 29 +/-2 degC assessed as C21:0 content at 46 uM by GC/EI-MS analysis (reference value: 0.20 mg/kg dry weight); type: functional
[12] = system: Secale cereale; assay: Toxicity against green Secale cereale (rye) seedlings assessed as fresh biomass of seedling grown at 22 +/-2 degC at 46 uM measured at 5 days after compound-treated seed germination (reference value: 20.76 +/-0.81 g); type: organism-based; settings: in vivo, 120 h
[13] = system: Secale cereale; assay: Change in alkylresorcinol homologue composition in dry shoots of etiolated Secale cereale (rye) seedlings grown from compound-treated seeds at 15 +/-2 degC assessed as C17:0 content at 46 uM by GC/EI-MS analysis (reference value: 3.25 mg/kg dry weight); type: functional
[14] = system: Secale cereale; assay: Change in alkylresorcinol homologue composition in dry shoots of etiolated Secale cereale (rye) seedlings grown from compound-treated seeds at 22 +/-2 degC assessed as C23:0 content at 46 uM by GC/EI-MS analysis (reference value: 0.37 mg/kg dry weight); type: functional
[15] = system: Secale cereale; assay: Change in alkylresorcinol homologue composition in dry shoots of green Secale cereale (rye) seedlings grown from compound-treated seeds at 29 +/-2 degC assessed as C15:0 content at 46 uM by GC/EI-MS analysis (reference value: 0.11 mg/kg dry weight); type: functional
[16] = system: Secale cereale; assay: Change in alkylresorcinol homologue composition in dry shoots of etiolated Secale cereale (rye) seedlings grown from compound-treated seeds at 15 +/-2 degC assessed as C23:0 content at 46 uM by GC/EI-MS analysis (reference value: 0.33 mg/kg dry weight); type: functional
[17] = system: Secale cereale; assay: Change in alkylresorcinol homologue composition in dry shoots of green Secale cereale (rye) seedlings grown from compound-treated seeds at 15 +/-2 degC assessed as C21:1 content at 46 uM by GC/EI-MS analysis; type: functional
[18] = system: Secale cereale; assay: Change in alkylresorcinol homologue composition in dry shoots of green Secale cereale (rye) seedlings grown from compound-treated seeds at 29 +/-2 degC assessed as C25:0 content at 46 uM by GC/EI-MS analysis (reference value: 0.03 mg/kg dry weight); type: functional
[19] = system: Secale cereale; assay: Toxicity against etiolated Secale cereale (rye) seedlings assessed as dry biomass of seedling grown at 22 +/-2 degC at 46 uM measured at 5 days after compound-treated seed germination (reference value: 2.52 +/-0.05 g); type: organism-based; settings: in vivo, 120 h
[20] = system: Secale cereale; assay: Change in alkylresorcinol homologue composition in dry shoots of etiolated Secale cereale (rye) seedlings grown from compound-treated seeds at 15 +/-2 degC assessed as C25:0 content at 46 uM by GC/EI-MS analysis (reference value: 0.11 mg/kg dry weight); type: functional
[21] = system: Secale cereale; assay: Change in alkylresorcinol homologue composition in dry shoots of etiolated Secale cereale (rye) seedlings grown from compound-treated seeds at 15 +/-2 degC assessed as C19:0 content at 46 uM by GC/EI-MS analysis (reference value: 1.77 mg/kg dry weight); type: functional
[22] = system: Secale cereale; assay: Change in alkylresorcinol homologue composition in dry shoots of etiolated Secale cereale (rye) seedlings grown from compound-treated seeds at 22 +/-2 degC assessed as C19:1 content at 46 uM by GC/EI-MS analysis (reference value: 0.24 mg/kg dry weight); type: functional
[23] = system: Secale cereale; assay: Change in alkylresorcinol homologue composition in dry shoots of etiolated Secale cereale (rye) seedlings grown from compound-treated seeds at 22 +/-2 degC assessed as C21:0 content at 46 uM by GC/EI-MS analysis (reference value: 1.49 mg/kg dry weight); type: functional
[24] = system: Secale cereale; assay: Change in alkylresorcinol content in dry shoots of green Secale cereale (rye) seedlings grown from compound-treated seeds at 29 +/-2 degC at 46 uM by thin layer chromatography (reference value: 1.94 +/-0.02 mg/kg dry weight); type: functional
[25] = system: Secale cereale; assay: Change in alkylresorcinol homologue composition in dry shoots of etiolated Secale cereale (rye) seedlings grown from compound-treated seeds at 29 +/-2 degC assessed as C21:0 content at 46 uM by GC/EI-MS analysis (reference value: 0.96 mg/kg dry weight); type: functional
[26] = system: Secale cereale; assay: Toxicity against etiolated Secale cereale (rye) seedlings assessed as fresh biomass of seedling grown at 15 +/-2 degC at 46 uM measured at 5 days after compound-treated seed germination (reference value: 7.63 +/-0.12 g); type: organism-based; settings: in vivo, 120 h

SMILES: CCSC(=O)N(CC)C1CCCCC1 [CYCLOATE]
- Activity [1]: 3.74 mg/kg
- Activity [2]: 0.87 mg/kg
- Activity [3]: 0.75 mg/kg
- Activity [4]: 0.05 mg/kg
- Activity [5]: 0.55 mg/kg
- Activity [6]: 0.75 mg/kg
- Activity [7]: 0.03 mg/kg
- Activity [8]: 2.94 mg/kg
- Activity [9]: 0.83 mg/kg
- Activity [10]: 1.01 mg/kg
- Activity [11]: 1.34 mg/kg
- Activity [12]: 10.63 g
- Activity [13]: 5.74 mg/kg
- Activity [14]: 0.3 mg/kg
- Activity [15]: 0.53 mg/kg
- Activity [16]: 0.17 mg/kg
- Activity [17]: 0.19 mg/kg
- Activity [18]: 0.2 mg/kg
- Activity [19]: 1.5 g
- Activity [20]: 0.1 mg/kg
- Activity [21]: 2.64 mg/kg
- Activity [22]: 0.21 mg/kg
- Activity [23]: 0.48 mg/kg
- Activity [24]: 13.96 mg/kg
- Activity [25]: 1.2 mg/kg
- Activity [26]: 4.41 g
